{
  "source": "patent US20220169680A1",
  "about": "(priority 2018, published 2022)",
  "key": {"[1]": {"test_system": "LPS-induced acute lung injury in mice", "set-up": "species or system C57 BL/6 male mice", "settings": "mouse, in vivo"}, "[2]": {"test_system": "LPS-induced acute lung injury in mice", "settings": "mouse, in vivo; cited from earlier work"}, "A549 cells [3]": {"test_system": "A549 cells", "type": "cell-based"}, "HeLa cells": {"test_system": "HeLa cells", "type": "cell-based"}, "MRCS cells": {"test_system": "MRCS cells", "type": "cell-based"}, "[4]": {"test_system": "293T cell, HUVEC cell, HCT-116 cell, MKN-45 cell, MRCS cell, U397 cell and ESF-1 cell", "type": "cell-based"}, "A549 cells [5]": {"test_system": "A549 cells", "type": "cell-based", "remark": "listed apart in the source"}, "A549 cells [6]": {"test_system": "A549 cells", "type": "cell-based", "remark": "listed apart in the source"}, "A549 cells [7]": {"test_system": "A549 cells", "type": "cell-based", "remark": "listed apart in the source"}, "A549 cells [8]": {"test_system": "A549 cells", "type": "cell-based", "remark": "listed apart in the source"}, "[9]": {"test_system": "3′ UTR region of RELA gene", "type": "cell-based"}, "[10]": {"test_system": "3′ UTR region of COLLAGEN3A1 gene", "type": "cell-based"}, "HEK293T cells": {"test_system": "HEK293T cells", "type": "cell-based"}, "murine organs": {"test_system": "murine organs", "set-up": "species or system C57 BL/6 male mice", "settings": "mouse, in vivo"}, "[11]": {"test_system": "poly(I:C)-induced acute lung injury mouse model", "set-up": "species or system C57 BL/6 male mice", "settings": "in vivo"}, "[12]": {"test_system": "LPS-induced acute lung injury in mice", "set-up": "species or system C57 BL/6 male mice", "settings": "mouse, in vivo", "remark": "listed apart in the source"}},
  "note": "Entries after “also recorded” stand apart in the source; their conditions may differ.",
  "data": [
    {"compound": "COc1cc(C2Oc3cc([C@H]4Oc5cc(O)cc(O)c5C(=O)[C@@H]4O)ccc3OC2CO)ccc1O", "note": "(stereo partly shown) [silybin, reference compound]", "values": [
      {"measurement": "effect on preventing lung injury (IL-6 in alveolar lavage fluid)", "setting": "[1]", "value": "had a tendency to prevent lung injury at this dose"},
      {"measurement": "effect on LPS-induced acute lung injury in mice", "setting": "[2]", "value": "can effectively reduce the LPS-induced acute lung injury in mice"}
    ]},
    {"compound": "DRLFFKCIYRRLKYGLKR [Jilin-2004(H5N1)-M2-44-61]", "values": [
      {"measurement": "amount of cell entry versus incubation duration", "setting": "A549 cells [3]", "value": "increased as the incubation duration increased"},
      {"measurement": "cell entry", "setting": "A549 cells [3]", "value": "entered A549 cells"},
      {"measurement": "cell entry after 5 min incubation", "setting": "A549 cells [3]", "value": "cell entry could be detected; also recorded: the entry into the cell was observed"},
      {"measurement": "cell entry at 30 min", "setting": "A549 cells [3]", "value": "had a strong entry effect"},
      {"measurement": "cell entry at lower concentrations", "setting": "A549 cells [3]", "value": "could still enter A549 cells"},
      {"measurement": "cell entry effect compared with TAT at the same time points", "setting": "A549 cells [3]", "value": "much stronger than that of the positive control TAT polypeptide"},
      {"measurement": "cell entry effect compared with TAT positive control", "setting": "A549 cells [3]", "value": "stronger than that of the TAT polypeptide"},
      {"measurement": "cell entry effect compared with existing cell-penetrating peptides (Table 4)", "setting": "A549 cells [3]", "value": "significantly better cell entry effects than existing cell-penetrating peptides"},
      {"measurement": "cell entry effect compared with the other three penetrating polypeptides", "setting": "A549 cells [3]", "value": "even better cell entry effect"},
      {"measurement": "cell-penetrating peptide function compared with positive control TAT", "setting": "A549 cells [3]", "value": "stronger than that of the positive control TAT"},
      {"measurement": "difference in entry effects between 1 h, 3 h and 6 h", "setting": "A549 cells [3]", "value": "little difference in entry effects"},
      {"measurement": "entry effect compared with other C-terminally truncated polypeptides", "setting": "A549 cells [3]", "value": "even better entry effects than other polypeptides"},
      {"measurement": "cell penetration properties", "setting": "HeLa cells", "value": "consistent with the results obtained using A549 cells"},
      {"measurement": "cell penetration properties", "setting": "MRCS cells", "value": "consistent with the results obtained using A549 cells"},
      {"measurement": "entry effect compared with other fragments in different cell lines", "setting": "[4]", "value": "even better entry effects"},
      {"measurement": "ability to carry FAM-labeled small RNA compared with transfection reagent RNAiMax", "setting": "A549 cells [5]", "value": "stronger than that of the transfection reagent RNAiMax"},
      {"measurement": "ability to carry small RNA compared with TAT at the same concentration", "setting": "A549 cells [5]", "value": "significantly stronger"},
      {"measurement": "carrying FAM-labeled small RNA into cells", "setting": "A549 cells [5]", "value": "can all carry small RNA into cells"},
      {"measurement": "carrying Cy3-labeled small RNA into cells", "setting": "A549 cells [6]", "value": "can carry small RNA into cells"},
      {"measurement": "effect compared with transfection reagent RNAiMax", "setting": "A549 cells [6]", "value": "stronger than that of the transfection reagent RNAiMax"},
      {"measurement": "carrying Cy3-labeled small RNA into cells (super high resolution microscope)", "setting": "A549 cells [7]", "value": "can carry Cy3-labeled small RNA into A549 cells"},
      {"measurement": "effect compared with RNAiMax or TAT (super high resolution microscope)", "setting": "A549 cells [7]", "value": "stronger than that of the transfection reagent RNAiMax or of TAT"},
      {"measurement": "ability to carry small RNA into cells compared with the transfection reagent RNAiMax group, qPCR", "setting": "A549 cells [8]", "value": "stronger than the transfection reagent RNAiMax group"},
      {"measurement": "ability to carry small RNA into cells, qPCR", "setting": "A549 cells [8]", "value": "all had the ability to carry small RNA into cells"},
      {"measurement": "rank of ability to carry small RNA in the cell experiments", "setting": "A549 cells [8]", "value": "the strongest ability to carry small RNA in the cell experiments"},
      {"measurement": "ability to carry PGY-dsRNA-6 compared with positive control TAT", "setting": "[9]", "value": "stronger than that of the positive control TAT"},
      {"measurement": "carrying PGY-dsRNA-6 into cells and fulfilling its function (luciferase reporter)", "setting": "[9]", "value": "could all carry PGY-dsRNA-6 into cells and fulfill its function"},
      {"measurement": "cell-penetrating peptide effect compared with transfection reagent RNAiMax", "setting": "[9]", "value": "close to the transfection reagent RNAiMax"},
      {"measurement": "ability to carry HJT-sRNA-m7 compared with positive control TAT", "setting": "[10]", "value": "stronger than that of the positive control TAT"},
      {"measurement": "carrying HJT-sRNA-m7 into cells and fulfilling its function (luciferase reporter)", "setting": "[10]", "value": "could carry HJT-sRNA-m7 into cells and fulfill its function"},
      {"measurement": "cell-penetrating peptide effect compared with transfection reagent RNAiMax", "setting": "[10]", "value": "close to the transfection reagent RNAiMax"},
      {"measurement": "carrying NS1-GFP plasmid into cells and GFP expression", "setting": "HEK293T cells", "value": "could carry NS1-GFP plasmid into HEK293 cells, and GFP protein was expressed in the nucleus"},
      {"measurement": "ability to deliver small RNA compared with TAT", "setting": "murine organs", "value": "significantly stronger than that of TAT"},
      {"measurement": "murine organs or tissues in which small RNA was detected", "setting": "murine organs", "value": "detected in 8 murine organs or tissues, including heart, liver, spleen, lung, kidney, stomach, small intestine and thymus"},
      {"measurement": "delivery of small RNAs to murine organs", "setting": "murine organs; ip", "value": "could effectively deliver small RNAs (PGY-sRNA-23 and PGY-sRNA-26) to murine organs"},
      {"measurement": "ability to carry small RNA in murine organs compared with TAT", "setting": "[11]", "value": "stronger than that of TAT"},
      {"measurement": "entry of miR1246 antagomir into lung tissue of mice", "setting": "[12]", "value": "could improve the entry of miR1246 antagomir into lung tissue of mice"},
      {"measurement": "effect on preventing lung injury (IL-6 in alveolar lavage fluid)", "setting": "[1]", "value": "had no effect on preventing lung injury"}
    ]}
  ]
}
